Laboratory results: patent US4190666A, “Anti-inflammatory 4,5-diarly-2-(substituted-thio)imidazoles and their corresponding sulfoxides and sulfones” (E. I. Du Pont de Nemours and Company, priority 1978, dated 1980)
Read-outs that look alike come from different tables or passages of the source.

Tests used:
[1] = system: established adjuvant-induced arthritis in rats; experiment: Established adjuvant-induced arthritis in rats (therapeutic, paw volume); format: in vivo, Charles River Lewis male rats; conditions: for ED50: Rattus norvegicus, read-out: Adjuvant Arthritis (ED50%); for ED50 / Adjuvant Arthritis (ED50%): established arthritis, 7 daily doses, ED50% decrease from control paw volume, Tables I-III
[2] = system: phenylquinone writhing syndrome; experiment: Phenylquinone writhing test (analgesic activity); format: in vivo, female white mice; conditions: oral; for ED50: Mus musculus, 1% methylcellulose, Tables VIII and IX, read-out: ED50 (effective analgesic dose for 50% of the mice); for peak time: time of peak action
Description: Phenylquinone Writhing Test A standard procedure for detecting and comparing the analgesic activity of compounds in this series for which there is good correlation with human efficacy is the standard phenylquinone writhing test modified from Siegmund, et al., Proc. Soc. Exp. Biol. Med. 95, 729 (1957). […] Aqueous (0.01% phenyl-p-benzoquinone) phenylquinone was injected intraperitoneally at 24 minutes later using 0.20 ml per mouse. […] The effective analgesic dose for 50% of the mice (ED50) was calculated by the moving average method of Thompson, W. R., Bact. Rev. 11, 115-145 (1947); also time of peak action was determined for many of the compounds.

COc1ccc(-c2nc(S(=O)(=O)C(F)(F)C(F)Br)[nH]c2-c2ccc(OC)cc2)cc1 (centres unmarked) [Example 95] showed an ED50 ([1]; po) of 2.4 mg/kg and an ED50 [2] of 2.8 mg/kg.
COc1ccc(-c2nc([S+]([O-])CC(F)(F)F)[nH]c2-c2ccc(OC)cc2)cc1 (centres unmarked) [Example 5, 4,5-bis(4-Methoxyphenyl)-2-(2,2,2-trifluoroethylsulfinyl)-imidazole] was tested, and the ED50 ([1]; po) was 10 mg/kg, the ED50 [2] was 0.86 mg/kg and the peak time [2] was 60 min.
COc1ccc(-c2nc([S+]([O-])C(F)(F)C(F)F)[nH]c2-c2ccc(OC)cc2)cc1 (centres unmarked) [Example 65] was tested, and the ED50 ([1]; po) was 2.4 mg/kg and the ED50 [2] was 0.8 mg/kg.
Compound O=S(=O)(c1nc(-c2ccccc2)c(-c2ccccc2)[nH]1)C(F)(F)C(F)F [Example 60, 4,5-diphenyl-2-(1,1,2,2-tetrafluoroethylsulfonyl)imidazole] has an ED50 ([1]; po) of 0.13 mg/kg, an ED50 [2] of 0.48 mg/kg and a peak time [2] of 120 min.
Work on COc1ccc(-c2nc(S(=O)(=O)CC(F)(F)F)[nH]c2-c2ccc(OC)cc2)cc1 [Example 6, 4,5-bis(4-Methoxyphenyl)-2-(2,2,2-trifluoroethylsulfonyl)-imidazole] yielded an ED50 ([1]; po) of 3.8 mg/kg, an ED50 [2] of 0.58 mg/kg and a peak time [2] of 60 min.
Compound CCOc1ccc(-c2[nH]c(S(=O)(=O)C(F)(F)C(F)F)nc2-c2ccccc2)cc1 [Example 142] has an ED50 ([1]; po) of 1.5 mg/kg, an ED50 [2] of 0.95 mg/kg and a peak time [2] of 120 min.
For COc1ccc(-c2[nH]c(S(=O)(=O)C(F)(F)C(F)F)nc2-c2ccc(F)cc2)cc1 [Example 133], the ED50 ([1]; po) was 2.2 mg/kg and the ED50 [2] was 0.27 mg/kg.
COc1ccc(-c2nc(S(=O)(=O)C(F)(F)F)[nH]c2-c2ccc(OC)cc2)cc1 [Example 127, 4,5-bis(4-methoxyphenyl)-2-(trifluoromethylsulfonyl)imidazole] gave an ED50 ([1]; po) of 0.33 mg/kg, an ED50 [2] of 0.045 mg/kg and a peak time [2] of 240 min.
COc1ccc(-c2nc(S(=O)(=O)C(F)F)[nH]c2-c2ccc(OC)cc2)cc1 [Example 74] was tested, and the ED50 ([1]; po) was 0.5 mg/kg and the ED50 [2] was 1.5 mg/kg.
With COc1ccc(-c2nc(S(=O)(=O)C(F)(F)C(F)F)[nH]c2-c2ccccc2)cc1 [Example 82] the ED50 ([1]; po) was 1.1 mg/kg, the ED50 [2] was 0.33 mg/kg and the peak time [2] was 240 min.
COc1ccc(-c2nc(SCC(F)(F)F)[nH]c2-c2ccc(OC)cc2)cc1 [Example 4, 4,5-bis-(4-Methoxyphenyl)-2-(2,2,2-trifluoroethylthio)imidazole] was tested, and the ED50 ([1]; po) was 20 mg/kg, the ED50 [2] was 1.2 mg/kg and the peak time [2] was 240 min.
CS(=O)(=O)c1nc(-c2ccc(Cl)cc2)c(-c2ccc(Cl)cc2)[nH]1 [Example 67] showed an ED50 ([1]; po) of 2 mg/kg.
For O=S(=O)(c1nc(-c2ccc(Cl)cc2)c(-c2ccc(C(F)(F)F)cc2)[nH]1)C(F)(F)C(F)F [Example 90], the ED50 ([1]; po) was 1.8 mg/kg.
Compound COc1ccc(-c2nc(S(=O)(=O)C(F)(F)C(F)F)[nH]c2-c2ccc(OC)cc2)cc1 [Example 64, 4,5-bis(4-methoxyphenyl)-2-(1,1,2,2-tetrafluoroethylsulfonyl)imidazole] has an ED50 ([1]; po) of 1.1 mg/kg, an ED50 [2] of 0.11 mg/kg and a peak time [2] of 120 min.
CSc1nc(-c2ccc3c(c2)OCO3)c(-c2ccc3c(c2)OCO3)[nH]1 [Example 37] gave an ED50 ([1]; po) of 20 mg/kg.
With [O-][S+](c1nc(-c2ccc(Cl)cc2)c(-c2ccc(Cl)cc2)[nH]1)C(F)(F)C(F)F (centres unmarked) [Example 68] the ED50 ([1]; po) was 0.2 mg/kg.
Compound CSc1nc(-c2ccc(Cl)cc2)c(-c2ccc(C(F)(F)F)cc2)[nH]1 [Example 36] has an ED50 ([1]; po) of 3.6 mg/kg.
C[S+]([O-])c1nc(-c2ccc(Cl)cc2)c(-c2ccc(Cl)cc2)[nH]1 (centres unmarked) [Example 59] showed an ED50 ([1]; po) of 2.3 mg/kg.
COc1ccc(-c2nc(S(=O)(=O)CC(C)=O)[nH]c2-c2ccc(OC)cc2)cc1 [Example 100] was tested, and the ED50 ([1]; po) was 18 mg/kg.
Cc1ccc(-c2nc(S(=O)(=O)C(F)(F)C(F)F)[nH]c2-c2ccc(C)cc2)cc1 [Example 81] was tested, and the ED50 ([1]; po) was 0.35 mg/kg.
Compound CSc1nc(-c2ccc(Cl)cc2)c(-c2ccc(F)cc2)[nH]1 [Example 33] has an ED50 ([1]; po) of 3.8 mg/kg.
Work on [O-][S+](CC(F)(F)F)c1nc(-c2ccc(Cl)cc2)c(-c2ccc(Cl)cc2)[nH]1 (centres unmarked) [Example 8, 4,5-bis(4-chlorophenyl)-2-(2,2,2-trifluoroethylsulfinyl)imidazole] yielded an ED50 ([1]; po) of 3 mg/kg.
With COc1ccc(-c2nc([S+]([O-])CC(C)=O)[nH]c2-c2ccc(OC)cc2)cc1 (centres unmarked) [Example 98] the ED50 ([1]; po) was 56 mg/kg.
O=S(=O)(c1nc(-c2ccc(Cl)cc2)c(-c2ccc(F)cc2)[nH]1)C(F)(F)C(F)F [Example 80] was tested, and the ED50 ([1]; po) was 0.09 mg/kg.
With [O-][S+](CC(F)(F)F)c1nc(-c2ccccc2)c(-c2ccccc2)[nH]1 (centres unmarked) [Example 2, 4,5-Diphenyl-2-(2,2,2-trifluoroethylsulfinyl)imidazole] the ED50 ([1]; po) was 48 mg/kg.
In the case of COc1ccc(-c2nc(S(=O)(=O)C(F)(F)CF)[nH]c2-c2ccc(OC)cc2)cc1 [Example 125, 4,5-bis(4-methoxyphenyl)-2-(1,1,2-trifluoroethylsulfonyl)imidazole], the ED50 ([1]; po) is reported as 5 mg/kg, the ED50 [2] is reported as 0.25 mg/kg and the peak time [2] is reported as 160 min.
Work on Fc1ccc(-c2nc(SC(F)(F)C(F)F)[nH]c2-c2ccccc2)cc1 [Example 49] yielded an ED50 ([1]; po) of 0.2 mg/kg.
Fc1cccc(-c2[nH]c(SC(F)(F)C(F)F)nc2-c2ccccc2)c1 [Example 120] was tested, and the “percent (%) reduction in paw volume measured at the indicated dose” value (shortened to “percent (%) reduction in paw volume”) ([1]; 1.0 mg./kg., oral) was 37%.
O=S(=O)(CC(F)(F)F)c1nc(-c2ccc(Cl)cc2)c(-c2ccc(Cl)cc2)[nH]1 [Example 9, 4,5-bis(4-Chlorophenyl)-2-(2,2,2-trifluoroethylsulfonyl)imidazole] was tested, and the ED50 ([1]; po) was 4.5 mg/kg.
For CS(=O)(=O)c1nc(-c2ccc(F)cc2)c(-c2ccc(F)cc2)[nH]1 [Example 72], the ED50 ([1]; po) was 4.5 mg/kg.
C=CCS(=O)(=O)c1nc(-c2ccc(OC)cc2)c(-c2ccc(OC)cc2)[nH]1 [Example 55] gave an ED50 ([1]; po) of 11 mg/kg.
In the case of FC(Cl)C(F)(F)Sc1nc(-c2ccccc2)c(-c2ccccc2)[nH]1 (centres unmarked) [Example 41], the “Adjuvant Arthritis (ED50%)” value ([1]; oral) is reported as 3.9 mg/kg.
CS(=O)(=O)c1nc(-c2ccccc2)c(-c2ccc(Cl)c(Cl)c2)[nH]1 [Example 145] was tested, and the “percent (%) reduction in paw volume” value ([1]; 50 mg./kg., oral) was 59%.
For COc1ccc(-c2nc(SC(F)(F)C(F)I)[nH]c2-c2ccc(OC)cc2)cc1 (centres unmarked) [Example 116], the “Adjuvant Arthritis (ED50%)” value ([1]; oral) was 30 mg/kg.
Compound C[S+]([O-])c1nc(-c2ccc(F)cc2)c(-c2ccc(F)cc2)[nH]1 (centres unmarked) [Example 136] has an ED50 ([1]; po) of 4 mg/kg.
FC(F)C(F)(F)Sc1nc(-c2ccccc2)c(-c2cccc(Cl)c2)[nH]1 [Example 121] gave an ED50 ([1]; po) of 0.6 mg/kg.
For CSc1nc(-c2ccccc2)c(-c2cccc(Cl)c2)[nH]1 [Example 114], the “percent (%) reduction in paw volume” value ([1]; 50 mg./kg., oral) was 45%.
CC[S+]([O-])c1nc(-c2ccc(OC)cc2)c(-c2ccc(OC)cc2)[nH]1 (centres unmarked) [Example 13, 2-Ethylsulfinyl-4,5-bis(4-methoxyphenyl)imidazole] was tested, and the ED50 ([1]; po) was 10 mg/kg.
CSc1nc(-c2ccc(F)cc2)c(-c2ccc(F)cc2)[nH]1 [Example 28] gave an ED50 ([1]; po) of 3.5 mg/kg.
For COc1ccc(-c2nc(SC(F)F)[nH]c2-c2ccc(OC)cc2)cc1 [Example 29], the ED50 ([1]; po) was 1.8 mg/kg.
CCCCSc1nc(-c2ccc(F)cc2)c(-c2ccc(F)cc2)[nH]1 [Example 108] was tested, and the “percent (%) reduction in paw volume” value ([1]; 10 mg./kg., oral) was 77%.
Compound O=S(=O)(CC(F)(F)F)c1nc(-c2ccccc2)c(-c2ccccc2)[nH]1 [Example 3, 4,5-Diphenyl-2-(2,2,2-trifluoroethylsulfonyl)imidazole] has an ED50 ([1]; po) of 12 mg/kg.
COc1ccc(-c2nc(SC(F)(F)F)[nH]c2-c2ccc(OC)cc2)cc1 [Example 107] was tested, and the ED50 ([1]; po) was 1.5 mg/kg.
COc1ccc(-c2nc(SC(F)(F)C(F)F)[nH]c2-c2ccccc2)cc1 [Example 44] showed an ED50 ([1]; po) of 20 mg/kg.
CS(=O)(=O)c1nc(-c2ccc(Cl)cc2)c(-c2ccccc2)[nH]1 [Example 85] gave an ED50 ([1]; po) of 30 mg/kg.
COc1ccc(-c2nc(S(=O)(=O)C(F)(F)F)[nH]c2-c2ccc(F)cc2)cc1 [Example 130] gave an ED50 ([1]; po) of 1.4 mg/kg and an ED50 [2] of 0.1 mg/kg.
FC(F)C(F)(F)Sc1nc(-c2ccc3c(c2)OCO3)c(-c2ccc3c(c2)OCO3)[nH]1 [Example 46] showed an ED50 ([1]; po) of 10 mg/kg.
O=S(=O)(c1nc(-c2ccc3c(c2)OCO3)c(-c2ccc3c(c2)OCO3)[nH]1)C(F)(F)C(F)F [Example 97] was tested, and the ED50 ([1]; po) was 1 mg/kg.
With COc1ccc(-c2nc(SC(F)(F)C(F)Br)[nH]c2-c2ccc(OC)cc2)cc1 (centres unmarked) [Example 51, 2-(2-bromo-1,1,2-trifluoroethylthio)-4,5-bis(4-methoxyphenyl)imidazole] the “Adjuvant Arthritis (ED50%)” value ([1]; oral) was 10 mg/kg.
Work on O=[N+]([O-])c1ccc(-c2nc(S(=O)(=O)C(F)(F)C(F)F)[nH]c2-c2ccc([N+](=O)[O-])cc2)cc1 [Example 135] yielded an ED50 ([1]; oral) of 8.5 mg/kg.
COc1ccc(-c2[nH]c(S(=O)(=O)C(F)(F)C(F)F)nc2-c2ccccc2Cl)cc1 [Example 83] was tested, and the ED50 ([1]; po) was 7.2 mg/kg, the ED50 [2] was 0.56 mg/kg and the peak time [2] was 60 min.
Work on CCC[S+]([O-])c1nc(-c2ccc(OC)cc2)c(-c2ccc(OC)cc2)[nH]1 (centres unmarked) [Example 61] yielded an ED50 ([1]; po) of 13 mg/kg.
In the case of C[S+]([O-])c1nc(-c2ccccc2)c(-c2cccc(Cl)c2)[nH]1 (centres unmarked) [Example 139], the “percent (%) reduction in paw volume” value ([1]; 75 mg./kg., oral) is reported as 77%.
Compound O=S(=O)(c1nc(-c2ccccc2)c(-c2ccc(Cl)c(Cl)c2)[nH]1)C(F)(F)C(F)F [Example 137, 4(or 5)-(3,4-dichlorophenyl)-5(or 4)-phenyl-2-(1,1,2,2-tetrafluoroethylsulfonyl)imidazole] has an ED50 ([1]; po) of 0.25 mg/kg.
For CCOc1ccc(-c2[nH]c(SC)nc2-c2ccccc2)cc1 [Example 115], the “percent (%) reduction in paw volume” value ([1]; 50 mg./kg., oral) was 33%.
